These are literature values, as cited in patent US6797829B1, “Synthesis of a novel paramagnetic amino derivative (epm-5) for labelling chemical and biological macromolecules” (Conselho Nacional de Desenvolvimento Cientifico e …, priority 1999, dated 2004).

The structures appear in SMILES notation. Where two headings read alike, the source gives them in different places.

`CC1(C)CC(N)(C(=O)O)CC(C)(C)N1[O]` [Toac, 2,2,6,6tetramethylpiperidine-1-oxyl-4-amine-4-carboxylic acid]: the “pKa of the amine group” value by setting is: (in free state) 8; (when bound to the N-terminal portion of a peptide chain) “about 5.5”.
